Measurements as given in patent US10646528B2, “Method for preparing extract of genus Panax including wild ginseng or ginseng, or cambial meristematic cells derived from genus panax or extract thereof containing rare ginsenosides in high quantity” (WELLKEY HOLDINGS LIMITED, priority 2014, dated 2020).

Tested on: C57BL/6J mice
Assay: oral glucose tolerance test (OGTT)
Assay type: in vivo
Conditions: 2 g/kg D-glucose oral
Experimental: The anti-diabetic effect of the wild ginseng CMCs prepared in Example 2 was examined by an oral glucose tolerance test OGTT. Wild ginseng CMCs were heat-treated at 95° C. for 48 hours, and an extract obtained by extracting the CMCs with 70% ethanol was administered orally. C57BL/6J mice (8-week-old, male) were fasted overnight. The weights and blood glucose levels of the C57BL/6J mice were measured, and then 2 g/kg of D-glucose was administered orally to the mice. At this time, the mice were fed with drinking water, but were not fed with feed. A change in the blood glucose level was measured at […] for 2 hours.
The […] was compared with resistant maltodextrin (RMD) and a red ginseng extract (RG-200), which are known as health supplements in the anti-diabetic field.

Resistant maltodextrin [RMD]
Blood glucose level (Time 0, 2 g/kg-treated diabetic group): 169 mg/dL | Blood glucose level (Time 30, 2 g/kg-treated diabetic group): 485 mg/dL | Blood glucose level (Time 60, 2 g/kg-treated diabetic group): 350 mg/dL | Blood glucose level (Time 120, 2 g/kg-treated diabetic group): 282 mg/dL
